Data from ChEMBL document CHEMBL4699661, “Synthesis and Biological Characterization of Cyclic Disulfide-Containing Peptide Analogs of the Multifunctional Opioid/Neuropeptide FF Receptor Agonists That Produce Long-Lasting and Nontolerant Antinociception” (J Med Chem, 2020).
The source made the active and inactive calls. The rule behind the calls is not given here. Non-standard residues stand in square brackets, D forms with d. Residues, ends and D or L forms follow the SMILES beside them.

Assays:
[1] = Ratio of drug level in brain to plasma in mouse; format: ADME; details: read-out: BPR
[2] = molecular target: T1, Delta-type opioid receptor (Homo sapiens, UniProt P41143); assay: Agonist activity at delta opioid receptor (unknown origin) expressed in HEK293-A cells assessed as inhibition of forskolin-stimulated cAMP accumulation incubated for 30 mins by competition PKA binding assay; format: functional, cell-based
Mus musculus [3] = assay: Analgesic activity in icv dosed Kunming mouse assessed as time duration during which supraspinal antinociception lasted by radiant heat tail flick test; format: functional
Mus musculus [4] = assay: Analgesic activity in sc dosed Kunming mouse by radiant heat tail flick test; format: functional
[5] = Half life in 15% mouse brain at 0.01 mM by RP-HPLC analysis; format: ADME, tissue-based
[6] = molecular target: T2, Neuropeptide FF receptor 1 (Homo sapiens, UniProt Q9GZQ6); assay: Agonist activity at NPFFR1 (unknown origin) expressed in HEK293-A cells assessed as inhibition of forskolin-stimulated cAMP accumulation incubated for 30 mins by competition PKA binding assay; format: functional, cell-based
Mus musculus [7] = assay: Analgesic activity in sc dosed Kunming mouse dosed once daily for 8 consecutive days by radiant heat tail flick test; format: functional, organism-based; details: time 8.0 day
Mu-type opioid receptor = Mu-type opioid receptor (Homo sapiens, UniProt P35372); assay: Agonist activity at mu opioid receptor (unknown origin) expressed in HEK293-A cells assessed as inhibition of forskolin-stimulated cAMP accumulation incubated for 30 mins by competition PKA binding assay; format: functional, cell-based
[8] = molecular target: T3, Neuropeptide FF receptor 2 (Homo sapiens, UniProt Q9Y5X5); assay: Agonist activity at NPFFR2 (unknown origin) expressed in HEK293-A cells assessed as inhibition of forskolin-stimulated cAMP accumulation incubated for 30 mins by competition PKA binding assay; format: functional, cell-based
[9] = molecular target: T3, Neuropeptide FF receptor 2; assay: Agonist activity at NPFFR2 (unknown origin) expressed in HEK293-A cells assessed as inhibition of forskolin-stimulated cAMP accumulation incubated for 30 mins by competition PKA binding assay relative to control; format: functional, cell-based; details: filed as agonist
Mus musculus [10] = assay: Analgesic activity in icv dosed Kunming mouse by radiant heat tail flick test; format: functional
[11] = molecular target: Kappa-type opioid receptor (Homo sapiens, UniProt P41145); assay: Agonist activity at kappa opioid receptor (unknown origin) expressed in HEK293-A cells assessed as inhibition of forskolin-stimulated cAMP accumulation incubated for 30 mins by competition PKA binding assay; format: functional, cell-based; details: read-out: EC50
Mus musculus [12] = assay: Analgesic activity in sc dosed Kunming mouse assessed as time duration during which antinociception lasted by radiant heat tail flick test; format: functional
Mus musculus [13] = assay: Analgesic activity in icv dosed Kunming mouse dosed once daily for 8 consecutive days by radiant heat tail flick test; format: functional, organism-based; details: time 8.0 day
[14] = molecular target: T1, Delta-type opioid receptor; assay: Agonist activity at delta opioid receptor (unknown origin) expressed in HEK293-A cells assessed as inhibition of forskolin-stimulated cAMP accumulation incubated for 30 mins by competition PKA binding assay relative to control; format: functional, cell-based; details: filed as agonist
[15] = Half life in 100% mouse plasma at 0.01 mM by RP-HPLC analysis; format: ADME, cell-free
[16] = molecular target: T2, Neuropeptide FF receptor 1; assay: Agonist activity at NPFFR1 (unknown origin) expressed in HEK293-A cells assessed as inhibition of forskolin-stimulated cAMP accumulation incubated for 30 mins by competition PKA binding assay relative to control; format: functional, cell-based; details: filed as agonist
Mus musculus [17] = assay: Analgesic activity in Kunming mouse assessed as increase in antinociceptive effect at 0.03 pmol, icv pre-treated with 10 nmol, icv NPFF receptor antagonist RF9 by radiant heat tail flick test; format: functional, organism-based

SMILES | Kp [1] | EC50 [2] | Time (Mus musculus [3]) | ED50 (Mus musculus [4]) | half-life at 10 µM [5] | EC50 [6] | Activity (Mus musculus [7]) | EC50 (Mu-type opioid receptor) | EC50 [8] | Emax [9] | ED50 (Mus musculus [10]) | EC50 [11] | Time (Mus musculus [12]) | Activity (Mus musculus [13]) | Emax [14] | half-life at 10 µM [15] | Emax [16] | Activity (Mus musculus [17])
CN1CC[C@]23c4c5ccc(O)c4O[C@H]2[C@@H](O[C@@H]2O[C@H](C(=O)O)[C@@H](O)[C@H](O)[C@H]2O)C=C[C@H]3[C@H]1C5 [MORPHINE GLUCURONIDE] | 0.05 | – | – | – | – | – | – | – | – | – | – | – | – | – | – | – | – | –
N=C(N)NCCC[C@H](NC(=O)[C@H](CCC(N)=O)NC(=O)[C@@H]1CCCN1C(=O)[C@H]1CSSC[C@H](NC(=O)[C@@H](N)Cc2ccc(O)cc2)C(=O)NCC(=O)N[C@@H](Cc2ccccc2)C(=O)N1)C(=O)N[C@@H](Cc1ccccc1)C(N)=O | – | 490 nM | 3 h | 0.003 µmol/kg | 229 min | 354 nM | Active | 3830 nM | 168 nM | 61.6% | 0.21 pmol | 743 nM | 4 h | Active | 60.3% | 17 min | 82.8% | Active
CN1CC[C@]23c4c5ccc(O)c4O[C@H]2[C@@H](O)C=C[C@H]3[C@H]1C5 [MORPHINE] | 0.74 | – | – | – | – | – | – | – | – | – | – | – | – | – | – | – | – | –
C[C@@H](NC(=O)[C@@H](N)Cc1ccc(O)cc1)C(=O)NCC(=O)N[C@@H](Cc1ccccc1)C(=O)N[C@@H](CCC(N)=O)C(=O)N1CCC[C@H]1C(=O)N[C@@H](CCC(N)=O)C(=O)N[C@@H](CCCNC(=N)N)C(=O)N[C@@H](Cc1ccccc1)C(N)=O (H-Y[dA]GFQPQRF-NH2) | – | – | – | 1.37 µmol/kg | – | – | Active | – | – | – | 390 pmol | – | – | – | – | – | – | Active
N=C(N)NCCC[C@H](NC(=O)[C@H](CCC(N)=O)NC(=O)[C@@H]1CCCN1C(=O)[C@@H](CS)NC(=O)[C@H](Cc1ccccc1)NC(=O)CNC(=O)[C@@H](CS)NC(=O)[C@@H](N)Cc1ccc(O)cc1)C(=O)N[C@@H](Cc1ccccc1)C(N)=O | – | 219 nM | 3 h | 0.06 µmol/kg | – | 788 nM | Active | 171 nM | 719 nM | 58.4% | 1.13 pmol | 2300 nM | 3 h | – | 58.3% | 30.9 min | 85.7% | Active
